{"source": "patent US20050197342A1", "about": "“Substituted nitrogen-containing six-membered amino-heterocycles as vanilloid-1 receptor antagonists for treating pain” (priority 2003, published 2005)", "origin": "cited, not measured here", "target": "VR1 (Rattus norvegicus, UniProt O35433)", "sequence (O35433 whole entry)": "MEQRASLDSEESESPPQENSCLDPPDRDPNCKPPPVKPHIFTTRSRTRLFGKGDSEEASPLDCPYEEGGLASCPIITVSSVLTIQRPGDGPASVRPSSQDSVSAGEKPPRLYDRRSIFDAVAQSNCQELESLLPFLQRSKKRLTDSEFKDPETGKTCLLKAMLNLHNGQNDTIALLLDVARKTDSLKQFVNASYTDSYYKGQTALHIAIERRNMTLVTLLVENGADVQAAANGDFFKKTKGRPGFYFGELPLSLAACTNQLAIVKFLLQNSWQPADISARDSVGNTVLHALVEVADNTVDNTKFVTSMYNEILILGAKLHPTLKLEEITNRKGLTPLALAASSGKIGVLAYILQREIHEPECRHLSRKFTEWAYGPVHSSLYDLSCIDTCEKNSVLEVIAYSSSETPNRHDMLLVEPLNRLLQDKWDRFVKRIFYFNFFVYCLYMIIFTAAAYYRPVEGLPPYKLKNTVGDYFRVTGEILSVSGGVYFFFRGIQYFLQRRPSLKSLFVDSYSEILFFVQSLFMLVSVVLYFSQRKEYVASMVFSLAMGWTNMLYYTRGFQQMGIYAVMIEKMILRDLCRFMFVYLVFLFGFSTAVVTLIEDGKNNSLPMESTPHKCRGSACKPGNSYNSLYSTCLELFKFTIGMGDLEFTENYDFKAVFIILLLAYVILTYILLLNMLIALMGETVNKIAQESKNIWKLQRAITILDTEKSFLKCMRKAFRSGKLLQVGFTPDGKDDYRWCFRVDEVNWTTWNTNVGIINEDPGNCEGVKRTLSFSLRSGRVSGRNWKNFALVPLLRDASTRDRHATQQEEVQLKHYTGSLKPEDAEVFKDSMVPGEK", "details": "Wahl et al., Mol. Pharmacol., 59:9, 2001", "data": [{"smiles": "C=C(C)[C@]12C[C@@H](C)[C@@]34O[C@](Cc5ccccc5)(O[C@@H]1[C@@H]3C=C(COC(=O)Cc1cc(I)c(O)c(OC)c1)C[C@]1(O)C(=O)C(C)=C[C@@H]41)O2", "note": "[Iodo-resiniferatoxin]", "values": [{"measurement": "antagonist of VR1", "value": "nanomolar antagonist"}]}]}
